{
  "source": "ChEMBL document CHEMBL1145513",
  "about": "“S-adenosylmethionine-dependent protein methylation in mammalian cytosol via tyrphostin modification by catechol-O-methyltransferase” (J Biol Chem, 2007)",
  "note": "Activity calls are given as the source filed them. The rule behind the calls is not given here.",
  "data": [
    {"species_on_record": "Sus scrofa", "assay": "Activity of pig recombinant catechol-O-methyltransferase assessed per unit enzyme", "units": {"Activity": "pmol/min"}, "values": [
      {"compound": "N#C/C(=C\\c1ccc(O)c(O)c1)C(=O)NCCCc1ccccc1", "Activity": 3.11},
      {"compound": "N#CC(C#N)=Cc1ccc(O)c(O)c1", "Activity": 2.44},
      {"compound": "N#C/C(=C\\c1ccc(O)c(O)c1)C(N)=S", "Activity": 2.45},
      {"compound": "COc1c(C(C)(C)C)cc(C=C(C#N)C#N)cc1C(C)(C)C", "Activity": 0.04},
      {"compound": "N#CC(C#N)=Cc1cc(O)c(O)c(O)c1", "Activity": 1.65},
      {"compound": "N#C/C(=C\\c1ccc(O)c(O)c1)C(=O)NCc1ccccc1", "Activity": 3.06},
      {"compound": "N#C/C(=C\\c1ccc(O)c(O)c1)C(=O)NCCCCc1ccccc1", "Activity": 2.84},
      {"compound": "N#CC(C#N)=Cc1ccc(O)cc1", "Activity": 0.05},
      {"compound": "N#C/C(=C\\c1ccc(O)c(O)c1)C(N)=O", "Activity": 2.98},
      {"compound": "N#CC(C#N)=Cc1cc(O)c(O)c([N+](=O)[O-])c1", "Activity": 0.05},
      {"compound": "C[C@@H](NC(=O)/C(C#N)=C/c1ccc(O)c(O)c1)c1ccccc1", "Activity": 3.06},
      {"compound": "C[C@H](NC(=O)/C(C#N)=C/c1ccc(O)c(O)c1)c1ccccc1", "Activity": 3.08},
      {"compound": "N#CC(C#N)=C(N)/C(C#N)=C/c1cc(O)c(O)c(O)c1", "Activity": 1.79},
      {"compound": "N#C/C(=C\\c1ccc(O)c(O)c1)C(=O)O", "Activity": 3.67}
    ]},
    {"species_on_record": "Sus scrofa", "assay": "Inhibition of pig recombinant catechol-O-methyltransferase at 100 uM", "values": [
      {"compound": "N#CC(C#N)=Cc1cc(O)c(O)c([N+](=O)[O-])c1", "Activity": "Active"}
    ]}
  ]
}
